From ChEMBL document CHEMBL3991601, “The target landscape of clinical kinase drugs” (Science, 2017)
Calls of active or inactive are those of the source. Cut-off read from the data, not from the text of the source, for most assays here: actives have a measured Kd and inactives only a lower limit.

Tests used:
[1] = biological target: Protein-tyrosine kinase 6 (Homo sapiens, UniProt Q13882)
[2] = biological target: Mitogen-activated protein kinase 9 (Homo sapiens, UniProt P45984)
[3] = biological target: Guanine nucleotide-binding protein G(i) subunit alpha-2 (Homo sapiens, UniProt P04899)
Guanine nucleotide-binding protein G(i) subunit alpha-2, sequence (P04899 whole entry): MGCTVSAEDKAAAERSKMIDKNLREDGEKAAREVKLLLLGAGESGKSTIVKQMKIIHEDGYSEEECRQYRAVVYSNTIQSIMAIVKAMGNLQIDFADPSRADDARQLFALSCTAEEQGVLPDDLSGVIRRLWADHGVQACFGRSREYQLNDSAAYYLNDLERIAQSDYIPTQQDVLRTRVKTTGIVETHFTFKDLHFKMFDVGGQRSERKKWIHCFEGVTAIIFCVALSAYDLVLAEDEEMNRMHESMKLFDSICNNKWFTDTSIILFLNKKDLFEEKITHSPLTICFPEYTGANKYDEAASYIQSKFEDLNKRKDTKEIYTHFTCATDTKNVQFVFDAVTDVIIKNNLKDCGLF

[4] = biological target: Calcium/calmodulin-dependent protein kinase type II subunit delta (Homo sapiens, UniProt Q13557)
Heme oxygenase 2 = biological target: T1, Heme oxygenase 2 (Homo sapiens, UniProt P30519)
T1 sequence (P30519 whole entry): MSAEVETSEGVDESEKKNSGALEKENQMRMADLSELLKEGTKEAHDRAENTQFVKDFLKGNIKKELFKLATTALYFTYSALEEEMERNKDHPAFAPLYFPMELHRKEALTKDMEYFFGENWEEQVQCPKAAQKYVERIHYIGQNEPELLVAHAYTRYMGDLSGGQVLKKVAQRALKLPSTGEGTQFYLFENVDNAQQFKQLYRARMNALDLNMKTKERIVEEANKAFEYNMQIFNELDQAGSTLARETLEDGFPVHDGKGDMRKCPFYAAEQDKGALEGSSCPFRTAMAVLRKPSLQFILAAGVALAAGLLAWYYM

[5] = biological target: Receptor-interacting serine/threonine-protein kinase 3 (Homo sapiens, UniProt Q9Y572)
Receptor-interacting serine/threonine-protein kinase 3, sequence (Q9Y572 whole entry): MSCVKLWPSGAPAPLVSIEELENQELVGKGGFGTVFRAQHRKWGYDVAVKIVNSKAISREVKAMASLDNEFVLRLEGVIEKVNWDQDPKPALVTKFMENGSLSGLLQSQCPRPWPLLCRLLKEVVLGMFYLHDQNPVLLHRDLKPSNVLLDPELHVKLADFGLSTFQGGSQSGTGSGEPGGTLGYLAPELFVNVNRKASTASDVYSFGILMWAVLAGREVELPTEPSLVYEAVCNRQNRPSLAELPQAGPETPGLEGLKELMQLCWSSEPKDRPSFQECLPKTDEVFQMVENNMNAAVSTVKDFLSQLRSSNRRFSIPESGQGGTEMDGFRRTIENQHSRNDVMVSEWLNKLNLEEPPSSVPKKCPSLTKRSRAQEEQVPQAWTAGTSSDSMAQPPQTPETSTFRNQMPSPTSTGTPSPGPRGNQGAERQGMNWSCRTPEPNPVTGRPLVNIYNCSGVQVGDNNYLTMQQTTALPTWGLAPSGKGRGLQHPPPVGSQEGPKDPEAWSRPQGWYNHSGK

[6] = biological target: Serine/threonine-protein kinase pim-1 (Homo sapiens, UniProt P11309)
Serine/threonine-protein kinase pim-1, sequence (P11309 whole entry): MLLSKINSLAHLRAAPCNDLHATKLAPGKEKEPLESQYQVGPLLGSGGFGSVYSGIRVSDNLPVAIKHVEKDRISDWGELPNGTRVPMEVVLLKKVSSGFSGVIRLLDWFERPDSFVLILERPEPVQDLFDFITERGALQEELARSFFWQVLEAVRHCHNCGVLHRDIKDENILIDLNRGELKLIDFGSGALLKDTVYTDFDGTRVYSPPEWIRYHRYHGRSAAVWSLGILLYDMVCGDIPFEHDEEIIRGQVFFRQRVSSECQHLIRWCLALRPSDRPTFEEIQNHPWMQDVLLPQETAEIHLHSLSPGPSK

[7] = biological target: Tyrosine-protein kinase HCK (Homo sapiens, UniProt P08631)
Tyrosine-protein kinase HCK, sequence (P08631 whole entry): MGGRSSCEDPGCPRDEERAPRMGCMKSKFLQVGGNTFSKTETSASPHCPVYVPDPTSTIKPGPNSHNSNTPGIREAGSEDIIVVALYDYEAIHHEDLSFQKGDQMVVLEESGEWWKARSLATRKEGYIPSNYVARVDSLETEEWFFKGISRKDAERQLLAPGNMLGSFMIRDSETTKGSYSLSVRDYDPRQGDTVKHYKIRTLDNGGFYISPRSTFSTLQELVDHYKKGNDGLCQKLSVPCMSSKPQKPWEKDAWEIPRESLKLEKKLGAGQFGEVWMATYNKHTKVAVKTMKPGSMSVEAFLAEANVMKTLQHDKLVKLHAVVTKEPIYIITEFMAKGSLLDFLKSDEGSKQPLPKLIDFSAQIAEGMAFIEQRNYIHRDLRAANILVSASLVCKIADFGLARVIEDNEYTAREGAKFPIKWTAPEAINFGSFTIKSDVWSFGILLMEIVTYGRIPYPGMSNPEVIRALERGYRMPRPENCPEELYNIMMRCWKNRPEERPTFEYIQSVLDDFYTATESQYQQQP

[8] = biological target: T2, Interleukin-1 receptor-associated kinase 3 (Homo sapiens, UniProt Q9Y616)
T2 sequence (Q9Y616 whole entry): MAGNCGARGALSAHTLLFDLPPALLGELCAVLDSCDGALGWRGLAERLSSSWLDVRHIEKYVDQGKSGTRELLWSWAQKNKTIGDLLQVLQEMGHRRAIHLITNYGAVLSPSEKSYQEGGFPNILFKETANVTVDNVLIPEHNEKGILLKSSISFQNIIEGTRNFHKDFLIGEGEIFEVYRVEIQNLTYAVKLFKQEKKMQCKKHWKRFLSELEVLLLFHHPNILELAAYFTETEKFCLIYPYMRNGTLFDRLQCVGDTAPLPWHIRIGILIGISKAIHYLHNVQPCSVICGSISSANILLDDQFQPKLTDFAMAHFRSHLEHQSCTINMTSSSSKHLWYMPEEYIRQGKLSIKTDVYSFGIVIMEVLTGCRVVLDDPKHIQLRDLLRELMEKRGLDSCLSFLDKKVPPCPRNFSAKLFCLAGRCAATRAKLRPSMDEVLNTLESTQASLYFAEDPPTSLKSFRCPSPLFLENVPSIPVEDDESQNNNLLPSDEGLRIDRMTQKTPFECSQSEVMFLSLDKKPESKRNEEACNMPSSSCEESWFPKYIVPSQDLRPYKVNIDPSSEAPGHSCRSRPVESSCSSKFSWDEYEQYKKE

LIM domain kinase 1 = LIM domain kinase 1 (Homo sapiens, UniProt P53667)
LIM domain kinase 1, sequence (P53667 whole entry, the tested form may be a part): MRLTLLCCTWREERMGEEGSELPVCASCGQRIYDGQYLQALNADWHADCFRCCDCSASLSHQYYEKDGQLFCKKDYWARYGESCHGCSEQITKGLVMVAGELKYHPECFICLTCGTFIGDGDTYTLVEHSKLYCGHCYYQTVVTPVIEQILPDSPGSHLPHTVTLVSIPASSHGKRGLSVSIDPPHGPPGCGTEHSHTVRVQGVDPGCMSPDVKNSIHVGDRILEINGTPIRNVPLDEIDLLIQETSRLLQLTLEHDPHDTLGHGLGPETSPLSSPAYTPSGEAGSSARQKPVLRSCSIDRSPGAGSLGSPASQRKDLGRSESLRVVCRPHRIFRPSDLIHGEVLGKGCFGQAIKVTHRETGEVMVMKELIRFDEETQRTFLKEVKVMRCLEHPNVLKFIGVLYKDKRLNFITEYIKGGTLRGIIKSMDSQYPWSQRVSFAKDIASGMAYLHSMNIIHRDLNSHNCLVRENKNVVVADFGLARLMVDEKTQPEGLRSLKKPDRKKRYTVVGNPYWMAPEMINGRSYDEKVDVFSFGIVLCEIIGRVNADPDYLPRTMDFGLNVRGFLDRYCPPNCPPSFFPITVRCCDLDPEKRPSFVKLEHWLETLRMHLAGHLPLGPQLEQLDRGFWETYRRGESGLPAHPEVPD

[9] = biological target: Epithelial discoidin domain-containing receptor 1 (Homo sapiens, UniProt Q08345)
Epithelial discoidin domain-containing receptor 1, sequence (Q08345 whole entry, the tested form may be a part): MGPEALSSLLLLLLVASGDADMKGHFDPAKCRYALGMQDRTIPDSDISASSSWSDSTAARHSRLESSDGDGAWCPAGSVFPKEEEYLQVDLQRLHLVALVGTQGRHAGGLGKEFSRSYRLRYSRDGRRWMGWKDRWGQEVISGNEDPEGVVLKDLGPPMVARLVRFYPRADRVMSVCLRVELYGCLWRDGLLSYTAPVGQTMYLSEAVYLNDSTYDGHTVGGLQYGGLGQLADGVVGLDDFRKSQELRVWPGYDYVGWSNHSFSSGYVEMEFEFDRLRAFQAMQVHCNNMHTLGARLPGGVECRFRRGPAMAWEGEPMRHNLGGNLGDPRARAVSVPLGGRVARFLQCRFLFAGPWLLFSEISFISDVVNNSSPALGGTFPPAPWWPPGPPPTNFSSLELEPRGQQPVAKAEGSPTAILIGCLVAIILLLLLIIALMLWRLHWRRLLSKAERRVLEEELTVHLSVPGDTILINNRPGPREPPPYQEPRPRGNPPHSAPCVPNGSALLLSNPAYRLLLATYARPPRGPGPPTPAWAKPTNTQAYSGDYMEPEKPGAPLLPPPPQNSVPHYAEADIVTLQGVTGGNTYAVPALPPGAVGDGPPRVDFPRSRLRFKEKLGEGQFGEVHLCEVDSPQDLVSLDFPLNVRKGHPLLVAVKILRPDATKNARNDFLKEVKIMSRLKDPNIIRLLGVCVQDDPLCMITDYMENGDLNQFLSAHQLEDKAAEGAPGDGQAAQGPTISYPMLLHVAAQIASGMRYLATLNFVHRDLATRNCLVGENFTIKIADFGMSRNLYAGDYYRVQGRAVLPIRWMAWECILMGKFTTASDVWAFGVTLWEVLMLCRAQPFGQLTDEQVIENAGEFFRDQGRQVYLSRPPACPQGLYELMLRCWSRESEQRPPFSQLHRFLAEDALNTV

[10] = biological target: T3, Serine/threonine-protein kinase TAO2 (Homo sapiens, UniProt Q9UL54)
T3 sequence (Q9UL54 whole entry): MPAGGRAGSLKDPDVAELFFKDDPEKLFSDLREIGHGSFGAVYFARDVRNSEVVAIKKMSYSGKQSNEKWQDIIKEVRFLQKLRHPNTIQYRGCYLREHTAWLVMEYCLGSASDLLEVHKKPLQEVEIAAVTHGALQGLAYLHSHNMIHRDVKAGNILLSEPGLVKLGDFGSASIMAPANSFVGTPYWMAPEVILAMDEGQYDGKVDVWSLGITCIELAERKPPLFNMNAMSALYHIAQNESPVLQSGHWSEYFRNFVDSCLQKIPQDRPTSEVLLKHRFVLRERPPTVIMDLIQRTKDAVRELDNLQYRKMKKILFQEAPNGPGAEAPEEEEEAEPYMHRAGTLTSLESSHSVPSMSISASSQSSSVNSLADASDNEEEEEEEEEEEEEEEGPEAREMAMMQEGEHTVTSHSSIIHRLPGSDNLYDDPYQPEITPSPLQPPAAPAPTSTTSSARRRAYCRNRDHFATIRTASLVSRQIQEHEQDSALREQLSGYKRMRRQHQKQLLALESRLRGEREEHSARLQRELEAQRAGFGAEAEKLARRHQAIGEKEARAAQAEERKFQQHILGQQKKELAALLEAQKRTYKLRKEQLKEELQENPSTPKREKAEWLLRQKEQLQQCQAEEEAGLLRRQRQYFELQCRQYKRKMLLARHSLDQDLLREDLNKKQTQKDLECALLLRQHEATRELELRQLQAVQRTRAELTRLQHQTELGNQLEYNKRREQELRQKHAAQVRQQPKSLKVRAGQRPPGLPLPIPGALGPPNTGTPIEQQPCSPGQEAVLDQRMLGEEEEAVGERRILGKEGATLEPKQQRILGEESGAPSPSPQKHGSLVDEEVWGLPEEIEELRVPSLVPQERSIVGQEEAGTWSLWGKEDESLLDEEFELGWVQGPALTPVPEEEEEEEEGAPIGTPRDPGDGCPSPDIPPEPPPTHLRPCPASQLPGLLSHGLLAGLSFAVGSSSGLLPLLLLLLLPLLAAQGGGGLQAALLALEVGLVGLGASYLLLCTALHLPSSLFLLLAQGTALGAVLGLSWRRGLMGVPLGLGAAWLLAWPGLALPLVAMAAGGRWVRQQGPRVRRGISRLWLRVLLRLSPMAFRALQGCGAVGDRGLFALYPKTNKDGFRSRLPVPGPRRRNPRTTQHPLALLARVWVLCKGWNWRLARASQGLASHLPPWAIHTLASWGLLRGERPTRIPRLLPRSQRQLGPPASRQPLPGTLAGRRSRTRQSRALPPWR

[11] = biological target: 26S proteasome regulatory subunit 6B (Homo sapiens, UniProt P43686)
26S proteasome regulatory subunit 6B, sequence (P43686 whole entry): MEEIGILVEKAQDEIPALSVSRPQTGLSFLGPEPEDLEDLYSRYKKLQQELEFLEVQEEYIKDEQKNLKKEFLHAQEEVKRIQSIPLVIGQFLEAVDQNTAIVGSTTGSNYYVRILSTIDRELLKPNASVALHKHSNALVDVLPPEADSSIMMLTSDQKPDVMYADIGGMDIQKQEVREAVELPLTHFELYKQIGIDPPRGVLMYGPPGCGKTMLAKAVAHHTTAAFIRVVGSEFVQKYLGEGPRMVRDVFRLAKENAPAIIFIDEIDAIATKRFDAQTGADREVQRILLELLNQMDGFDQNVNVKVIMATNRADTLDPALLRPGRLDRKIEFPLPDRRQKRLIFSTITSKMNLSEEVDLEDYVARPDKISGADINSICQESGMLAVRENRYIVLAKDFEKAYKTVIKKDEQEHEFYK

Measured: Kd
Note: in the data inactive means no Kd found up to 30 µM.

Mitogen-activated protein kinase 9, sequence (P45984 whole entry): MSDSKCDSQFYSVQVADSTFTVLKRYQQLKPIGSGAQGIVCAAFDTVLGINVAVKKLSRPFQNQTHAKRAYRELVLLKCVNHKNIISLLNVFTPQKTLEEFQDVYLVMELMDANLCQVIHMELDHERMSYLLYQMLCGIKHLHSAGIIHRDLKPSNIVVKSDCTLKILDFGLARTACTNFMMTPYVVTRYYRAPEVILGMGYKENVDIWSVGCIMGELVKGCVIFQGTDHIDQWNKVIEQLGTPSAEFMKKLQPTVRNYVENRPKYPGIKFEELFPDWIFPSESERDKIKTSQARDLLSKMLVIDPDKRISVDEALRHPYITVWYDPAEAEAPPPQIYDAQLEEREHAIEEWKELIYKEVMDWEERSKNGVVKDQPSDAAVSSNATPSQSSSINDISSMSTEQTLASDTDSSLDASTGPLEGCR
Protein-tyrosine kinase 6, sequence (Q13882 whole entry): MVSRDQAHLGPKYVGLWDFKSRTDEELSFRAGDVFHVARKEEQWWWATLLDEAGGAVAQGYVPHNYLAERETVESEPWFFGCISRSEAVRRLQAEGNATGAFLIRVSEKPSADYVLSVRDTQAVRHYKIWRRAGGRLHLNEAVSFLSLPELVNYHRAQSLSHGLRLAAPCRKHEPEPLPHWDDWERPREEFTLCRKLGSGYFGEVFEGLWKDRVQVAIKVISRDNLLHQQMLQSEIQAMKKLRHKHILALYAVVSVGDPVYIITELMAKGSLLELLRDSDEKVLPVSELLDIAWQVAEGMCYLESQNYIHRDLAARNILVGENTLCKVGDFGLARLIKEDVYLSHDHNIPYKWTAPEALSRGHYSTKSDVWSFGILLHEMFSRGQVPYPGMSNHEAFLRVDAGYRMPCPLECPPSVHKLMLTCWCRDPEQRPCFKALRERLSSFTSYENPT

C=CCN(/C=C1/C(=O)O[C@H](COC)[C@@]2(C)C1=C(O)C(=O)C1=C2[C@H](OC(C)=O)C[C@]2(C)C(=O)CC[C@@H]12)CC=C [SONOLISIB]
inactive: [1] > 30 µM | [2] > 30 µM | [3] > 30 µM | [4] > 30 µM | Heme oxygenase 2 > 30 µM | [5] > 30 µM | [6] > 30 µM | [7] > 30 µM | [8] > 30 µM | LIM domain kinase 1 > 30 µM | [9] > 30 µM | [10] > 30 µM | [11] > 30 µM

COc1cc(Nc2ncc(F)c(Nc3ccc4c(n3)N(COP(=O)(O)O)C(=O)C(C)(C)O4)n2)cc(OC)c1OC [FOSTAMATINIB]
inactive: [1] > 30 µM | [3] > 30 µM | [4] > 30 µM | Heme oxygenase 2 > 30 µM | [5] > 30 µM | [6] > 30 µM | [7] > 30 µM | LIM domain kinase 1 > 30 µM | [9] > 30 µM | [10] > 30 µM | [11] > 30 µM
active: [2] 1.53 µM | [8] 1.29 µM

COCCN1CCN(Cc2ccc(-c3n[nH]c4c3C(=O)c3c(NC(=O)NN5CCOCC5)cccc3-4)cc2)CC1 [RGB-286638]
inactive: [1] > 30 µM | [3] > 30 µM | [4] > 30 µM | Heme oxygenase 2 > 30 µM | [5] > 30 µM | [6] > 30 µM | [7] > 30 µM | [8] > 30 µM | LIM domain kinase 1 > 30 µM | [9] > 30 µM | [10] > 30 µM | [11] > 30 µM
active: [2] 0.37 µM

C=CC(=O)Nc1cccc(Nc2nc(Nc3ccc(N4CCN(C(C)=O)CC4)cc3OC)ncc2C(F)(F)F)c1 [ROCILETINIB]
inactive: [1] > 30 µM | [2] > 30 µM | [3] > 30 µM | [4] > 30 µM | Heme oxygenase 2 > 30 µM | [5] > 30 µM | [6] > 30 µM | [7] > 30 µM | [8] > 30 µM | LIM domain kinase 1 > 30 µM | [9] > 30 µM | [10] > 30 µM | [11] > 30 µM

Cn1cc(-c2[nH]c3cc(NC(=O)[C@H](N)C4CCCCC4)cc4c3c2C=NNC4=O)cn1
inactive: [1] > 30 µM | [2] > 30 µM | [3] > 30 µM | [4] > 30 µM | Heme oxygenase 2 > 30 µM | [5] > 30 µM | [6] > 30 µM | [8] > 30 µM | [9] > 30 µM | [10] > 30 µM | [11] > 30 µM
active: [7] 0.436 µM | LIM domain kinase 1 0.133 µM

COc1cc2ncnc(Nc3ccc(F)c(Cl)c3)c2cc1NC(=O)/C=C/CN1CCCCC1 [DACOMITINIB ANHYDROUS]
inactive: [1] > 30 µM | [2] > 30 µM | [3] > 30 µM | [4] > 30 µM | Heme oxygenase 2 > 30 µM | [6] > 30 µM | [7] > 30 µM | [8] > 30 µM | LIM domain kinase 1 > 30 µM | [9] > 30 µM | [10] > 30 µM | [11] > 30 µM
active: [5] 3.64 µM

S=C(NCc1ccc2c(c1)OCO2)N1CCN(c2ncnc3c2oc2ccccc23)CC1 [AMUVATINIB]
inactive: [1] > 30 µM | [2] > 30 µM | [3] > 30 µM | [4] > 30 µM | Heme oxygenase 2 > 30 µM | [5] > 30 µM | [6] > 30 µM | [7] > 30 µM | [8] > 30 µM | LIM domain kinase 1 > 30 µM | [9] > 30 µM | [10] > 30 µM | [11] > 30 µM

COc1cc(F)c(F)c(Nc2ccc(I)cc2F)c1NS(=O)(=O)C1(C[C@H](O)CO)CC1 [REFAMETINIB]
inactive: [1] > 30 µM | [2] > 30 µM | [3] > 30 µM | [4] > 30 µM | Heme oxygenase 2 > 30 µM | [5] > 30 µM | [6] > 30 µM | [7] > 30 µM | [8] > 30 µM | LIM domain kinase 1 > 30 µM | [9] > 30 µM | [10] > 30 µM | [11] > 30 µM

C#Cc1cccc(Nc2ncnc3cc4c(cc23)OCCOCCOCCO4)c1 [ICOTINIB]
inactive: [1] > 30 µM | [2] > 30 µM | [3] > 30 µM | [4] > 30 µM | Heme oxygenase 2 > 30 µM | [5] > 30 µM | [6] > 30 µM | [7] > 30 µM | [8] > 30 µM | LIM domain kinase 1 > 30 µM | [9] > 30 µM | [10] > 30 µM | [11] > 30 µM

C=CC(=O)Nc1cc(Nc2nccc(-c3cn(C)c4ccccc34)n2)c(OC)cc1N(C)CCN(C)C [OSIMERTINIB]
inactive: [1] > 30 µM | [2] > 30 µM | [3] > 30 µM | [4] > 30 µM | Heme oxygenase 2 > 30 µM | [5] > 30 µM | [6] > 30 µM | [7] > 30 µM | [8] > 30 µM | LIM domain kinase 1 > 30 µM | [9] > 30 µM | [10] > 30 µM | [11] > 30 µM

FC(F)(F)c1ccc(CNc2ccc(Cc3c[nH]c4ncc(Cl)cc34)cn2)cn1 [PEXIDARTINIB]
inactive: [1] > 30 µM | [2] > 30 µM | [3] > 30 µM | [4] > 30 µM | Heme oxygenase 2 > 30 µM | [5] > 30 µM | [6] > 30 µM | [7] > 30 µM | [8] > 30 µM | LIM domain kinase 1 > 30 µM | [9] > 30 µM | [10] > 30 µM | [11] > 30 µM

COc1ccc2c(OCc3nnc4ccc(-c5ccccc5)nn34)ccnc2c1 [AMG-208]
inactive: [1] > 30 µM | [2] > 30 µM | [3] > 30 µM | [4] > 30 µM | Heme oxygenase 2 > 30 µM | [5] > 30 µM | [6] > 30 µM | [7] > 30 µM | [8] > 30 µM | LIM domain kinase 1 > 30 µM | [9] > 30 µM | [10] > 30 µM | [11] > 30 µM
